For 7 compounds, IC50 and MIC results are on record in ChEMBL document CHEMBL1158314, “Antimycobacterial cycloartanes from Borrichia frutescens” (J Nat Prod, 1996).

The subject of one assay is Vero. Briefly: Cytotoxicity against african green monkey Vero cells after 72 hrs. Format: cell-based. Particulars: Chlorocebus sabaeus.
Assay [1] deals with Mycobacterium tuberculosis. Kind of assay: Antimycobacterial activity against Mycobacterium tuberculosis H37Rv after 3 days by radiorespirometric assay. The format is functional. Particulars: 72 h.

Values after ≈ are worked out from the molar mass of the structure shown. Bounds are passed on as bounds.

As to `C[C@H](CC[C@H]1OC1(C)C)[C@H]1CC[C@@]2(C)[C@@H]3CC[C@H]4C(C)(C)[C@@H](O)CC[C@@]45C[C@@]35CC[C@]12C`, the IC50 with Vero was found to be 39.8 µg/mL (≈ 89.9 µM). The MIC in assay [1] came out at 8 µg/mL (≈ 18.1 µM).
Compound `CC(=O)O[C@H]1C[C@@]2(C)[C@@H](C[C@@H](O)[C@H]3[C@@]4(C)CC[C@@H](O)[C@@H](C)[C@@H]4CC[C@@]32C)/C1=C(\CCC=C(C)C)C(=O)O` [FUSIDIC ACID] gave an IC50 with Vero of 106 µg/mL (≈ 205 µM). The compound also returned an MIC in assay [1] of 4 µg/mL (≈ 7.74 µM).
On the same counts, the results for `C[C@H](CC[C@H]1OC1(C)C)[C@H]1CC[C@@]2(C)[C@@H]3CC[C@H]4C(C)(C)C(=O)CC[C@@]45C[C@@]35CC[C@]12C` are 71.8 µg/mL (≈ 163 µM) and 8 µg/mL (≈ 18.2 µM).
On to `CC(C)(O)[C@@H]1CC[C@](C)([C@H]2C(O)C[C@@]3(C)[C@@H]4CC[C@H]5C(C)(C)C(=O)CC[C@@]56C[C@@]46CC[C@]23C)O1` (stereo partly specified) [ARGENTATINE A], for which, in assay [1], the MIC was more than 128 µg/mL.
`CC(C)=C[C@H](O)C[C@@H](C)[C@H]1CC[C@@]2(C)C3=C(CC[C@]12C)[C@@]1(C)CCC(=O)C(C)(C)[C@@H]1CC3`: in the assay on Vero, 104 µg/mL (≈ 235 µM) corresponded to half-maximal inhibition (IC50). This compound registered an MIC in assay [1] of 64 µg/mL (≈ 145 µM).
In the case of `C[C@@H]1CC[C@H](C(C)(C)O)O[C@H]2C[C@@]3(C)[C@@H]4CC[C@H]5C(C)(C)C(=O)CC[C@@]56C[C@@]46CC[C@]3(C)[C@@H]12` [ARGENTATINE B], the MIC in assay [1] was more than 128 µg/mL.
The same measure, in the same setting: next, `CC(=O)O[C@H]1CC[C@]23C[C@]24CC[C@]2(C)[C@@H]([C@H](C)CC[C@H]5OC5(C)C)CC[C@@]2(C)[C@@H]4CC[C@H]3C1(C)C`: more than 128 µg/mL.

Usually IC50 stands for the concentration that gives 50% inhibition. For orientation: MIC means the smallest concentration in the dilution series that meets the test's criterion for growth inhibition.
